Holding throughout (experiment): Kinase selectivity, DiscoverX scanMAX Kinase assay panel (% control)
Holding throughout (assay type): binding

For assay [1], the target named is T1, kinases of the scanMAX Kinase assay panel (Homo sapiens, UniProt O75385).
T1 construct: purchased DiscoverX Co. (contract measurement) scanMAX Kinase assay panel
T1 sequence (O75385 1-1050): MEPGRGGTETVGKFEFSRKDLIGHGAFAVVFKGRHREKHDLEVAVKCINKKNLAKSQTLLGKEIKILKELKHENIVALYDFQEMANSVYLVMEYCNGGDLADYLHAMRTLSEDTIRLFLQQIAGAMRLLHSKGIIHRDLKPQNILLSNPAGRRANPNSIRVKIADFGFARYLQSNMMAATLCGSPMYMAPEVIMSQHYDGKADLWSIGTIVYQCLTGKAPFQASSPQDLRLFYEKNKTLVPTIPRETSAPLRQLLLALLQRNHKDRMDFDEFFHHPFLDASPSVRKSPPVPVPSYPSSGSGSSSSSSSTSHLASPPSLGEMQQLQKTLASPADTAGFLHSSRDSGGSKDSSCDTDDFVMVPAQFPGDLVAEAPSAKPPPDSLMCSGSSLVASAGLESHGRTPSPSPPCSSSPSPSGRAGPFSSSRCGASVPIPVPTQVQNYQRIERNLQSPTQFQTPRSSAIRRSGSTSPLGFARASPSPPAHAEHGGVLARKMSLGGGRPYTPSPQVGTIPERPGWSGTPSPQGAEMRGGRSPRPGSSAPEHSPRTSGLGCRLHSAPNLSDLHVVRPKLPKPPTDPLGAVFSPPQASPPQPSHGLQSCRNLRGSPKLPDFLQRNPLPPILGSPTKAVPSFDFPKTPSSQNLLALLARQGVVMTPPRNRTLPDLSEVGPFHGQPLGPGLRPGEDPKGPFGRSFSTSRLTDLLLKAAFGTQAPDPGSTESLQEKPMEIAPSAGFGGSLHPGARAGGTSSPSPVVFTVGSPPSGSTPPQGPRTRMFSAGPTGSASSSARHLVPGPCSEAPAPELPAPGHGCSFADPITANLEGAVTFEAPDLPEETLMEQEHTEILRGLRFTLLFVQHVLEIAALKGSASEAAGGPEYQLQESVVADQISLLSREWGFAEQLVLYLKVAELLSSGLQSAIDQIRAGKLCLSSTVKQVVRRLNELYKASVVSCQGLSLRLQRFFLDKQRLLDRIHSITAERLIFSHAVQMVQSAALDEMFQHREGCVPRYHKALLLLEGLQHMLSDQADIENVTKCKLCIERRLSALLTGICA
As to conditions: kinase ULK1; 1 uM in DMSO. A digest of the protocol: (§1)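 Each enzyme is treated with drug at 1 uM in DMSO, then signal is scaled between a positive control (0%) and DMSO (100%) to give % control. Kinases with % control under 35% are scored as inhibited.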

The target in assay [2] is T2, kinases of the scanMAX Kinase assay panel (Homo sapiens, UniProt P41743).
T2 construct: purchased DiscoverX Co. (contract measurement) scanMAX Kinase assay panel
T2 sequence (P41743 1-596): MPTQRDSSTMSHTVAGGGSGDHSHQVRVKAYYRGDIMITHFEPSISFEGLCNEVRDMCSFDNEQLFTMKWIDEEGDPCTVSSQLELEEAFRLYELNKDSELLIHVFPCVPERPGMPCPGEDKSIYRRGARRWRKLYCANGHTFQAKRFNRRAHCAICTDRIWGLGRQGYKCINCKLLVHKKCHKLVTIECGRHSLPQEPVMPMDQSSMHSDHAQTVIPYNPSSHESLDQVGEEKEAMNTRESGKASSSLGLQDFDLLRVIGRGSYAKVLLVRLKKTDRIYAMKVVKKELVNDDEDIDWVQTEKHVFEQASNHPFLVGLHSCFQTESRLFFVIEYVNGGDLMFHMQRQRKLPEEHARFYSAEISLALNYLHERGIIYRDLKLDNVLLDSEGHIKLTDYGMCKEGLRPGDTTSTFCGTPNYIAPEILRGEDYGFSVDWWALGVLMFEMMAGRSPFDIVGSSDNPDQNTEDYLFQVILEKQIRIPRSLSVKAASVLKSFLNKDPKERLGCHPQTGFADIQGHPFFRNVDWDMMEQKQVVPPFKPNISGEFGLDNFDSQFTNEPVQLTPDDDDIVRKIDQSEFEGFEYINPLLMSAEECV
As to conditions: PRKCI; 1 uM. The method in brief: as §1

Assay [3] has as its target T3, kinases of the scanMAX Kinase assay panel (Homo sapiens, UniProt Q86Y07).
T3 construct: purchased DiscoverX Co. (contract measurement) scanMAX Kinase assay panel
As to conditions: kinase VRK2; 1 uM in DMSO. The method in brief:
as §1

The target of assay [4] is T4, kinases of the scanMAX Kinase assay panel (Homo sapiens, UniProt Q96L34).
T4 construct: purchased DiscoverX Co. (contract measurement) scanMAX Kinase assay panel
T4 sequence (Q96L34 1-752): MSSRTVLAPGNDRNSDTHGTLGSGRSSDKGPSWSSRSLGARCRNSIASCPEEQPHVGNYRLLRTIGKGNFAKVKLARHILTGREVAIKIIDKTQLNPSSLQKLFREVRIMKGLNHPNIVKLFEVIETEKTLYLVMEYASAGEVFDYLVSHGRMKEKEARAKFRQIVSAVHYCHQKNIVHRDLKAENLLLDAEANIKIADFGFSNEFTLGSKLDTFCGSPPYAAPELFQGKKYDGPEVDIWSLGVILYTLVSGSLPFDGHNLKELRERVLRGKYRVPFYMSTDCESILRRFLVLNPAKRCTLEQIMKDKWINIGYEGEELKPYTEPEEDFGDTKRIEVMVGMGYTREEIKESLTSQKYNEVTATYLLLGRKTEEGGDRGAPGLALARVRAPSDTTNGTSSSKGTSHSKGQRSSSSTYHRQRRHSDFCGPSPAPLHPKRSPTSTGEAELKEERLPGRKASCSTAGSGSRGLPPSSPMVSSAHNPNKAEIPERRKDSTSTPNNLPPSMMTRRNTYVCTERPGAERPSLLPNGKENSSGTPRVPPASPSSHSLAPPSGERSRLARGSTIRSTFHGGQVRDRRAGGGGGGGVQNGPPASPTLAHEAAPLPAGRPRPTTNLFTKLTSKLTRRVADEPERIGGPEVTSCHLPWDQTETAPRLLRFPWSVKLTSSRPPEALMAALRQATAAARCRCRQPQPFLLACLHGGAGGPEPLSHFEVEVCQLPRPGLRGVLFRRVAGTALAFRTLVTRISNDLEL
As to conditions: MARK4; 1 uM. A digest of the protocol:
as §1

For assay [5], the target named is T5, kinases of the scanMAX Kinase assay panel (Homo sapiens, UniProt Q9Y6R4).
T5 construct: purchased DiscoverX Co. (contract measurement) scanMAX Kinase assay panel
T5 sequence (Q9Y6R4 whole entry): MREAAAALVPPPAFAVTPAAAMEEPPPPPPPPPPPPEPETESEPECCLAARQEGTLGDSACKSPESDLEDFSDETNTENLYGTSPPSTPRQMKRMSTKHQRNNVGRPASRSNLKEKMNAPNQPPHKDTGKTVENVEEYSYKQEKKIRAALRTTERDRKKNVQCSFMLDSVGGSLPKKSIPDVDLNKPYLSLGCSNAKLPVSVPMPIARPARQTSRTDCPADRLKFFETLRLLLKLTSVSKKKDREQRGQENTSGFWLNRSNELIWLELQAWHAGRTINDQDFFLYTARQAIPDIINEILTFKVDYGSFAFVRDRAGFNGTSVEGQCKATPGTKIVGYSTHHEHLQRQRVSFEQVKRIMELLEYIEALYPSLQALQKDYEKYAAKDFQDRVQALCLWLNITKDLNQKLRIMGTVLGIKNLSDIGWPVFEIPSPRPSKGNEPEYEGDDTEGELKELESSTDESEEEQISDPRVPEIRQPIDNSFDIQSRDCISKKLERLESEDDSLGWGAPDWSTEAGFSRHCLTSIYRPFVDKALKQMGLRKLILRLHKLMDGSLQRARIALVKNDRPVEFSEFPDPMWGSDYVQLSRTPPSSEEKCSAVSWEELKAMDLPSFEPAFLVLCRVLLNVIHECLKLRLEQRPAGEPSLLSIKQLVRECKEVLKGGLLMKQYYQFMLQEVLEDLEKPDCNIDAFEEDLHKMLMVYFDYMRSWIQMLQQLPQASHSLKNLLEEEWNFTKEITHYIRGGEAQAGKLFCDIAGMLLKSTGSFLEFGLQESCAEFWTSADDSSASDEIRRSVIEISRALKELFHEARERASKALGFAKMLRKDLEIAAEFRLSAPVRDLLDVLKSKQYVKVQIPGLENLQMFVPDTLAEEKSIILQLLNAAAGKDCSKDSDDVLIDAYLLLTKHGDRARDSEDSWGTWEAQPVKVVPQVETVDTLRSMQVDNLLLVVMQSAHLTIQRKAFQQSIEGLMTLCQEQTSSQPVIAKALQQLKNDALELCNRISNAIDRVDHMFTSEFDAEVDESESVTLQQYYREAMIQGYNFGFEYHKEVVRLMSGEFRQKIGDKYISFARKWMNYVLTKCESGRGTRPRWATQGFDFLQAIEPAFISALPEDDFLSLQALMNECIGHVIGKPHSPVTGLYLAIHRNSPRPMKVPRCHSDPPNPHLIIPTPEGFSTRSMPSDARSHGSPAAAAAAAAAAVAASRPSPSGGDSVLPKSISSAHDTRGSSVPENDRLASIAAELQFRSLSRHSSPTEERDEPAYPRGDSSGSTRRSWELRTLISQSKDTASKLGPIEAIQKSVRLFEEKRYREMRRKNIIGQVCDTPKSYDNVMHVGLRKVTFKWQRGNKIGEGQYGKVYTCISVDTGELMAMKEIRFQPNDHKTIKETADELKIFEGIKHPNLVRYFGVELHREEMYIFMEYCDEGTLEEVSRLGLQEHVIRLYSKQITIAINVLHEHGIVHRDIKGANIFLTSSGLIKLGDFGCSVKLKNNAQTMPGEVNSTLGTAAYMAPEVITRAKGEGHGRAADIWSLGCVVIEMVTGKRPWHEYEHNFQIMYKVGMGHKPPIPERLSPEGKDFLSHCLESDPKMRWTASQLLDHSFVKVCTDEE
As to conditions: MAP3K4; 1 uM. A digest of the protocol:
as §1

T3 sequence (Q86Y07 whole entry): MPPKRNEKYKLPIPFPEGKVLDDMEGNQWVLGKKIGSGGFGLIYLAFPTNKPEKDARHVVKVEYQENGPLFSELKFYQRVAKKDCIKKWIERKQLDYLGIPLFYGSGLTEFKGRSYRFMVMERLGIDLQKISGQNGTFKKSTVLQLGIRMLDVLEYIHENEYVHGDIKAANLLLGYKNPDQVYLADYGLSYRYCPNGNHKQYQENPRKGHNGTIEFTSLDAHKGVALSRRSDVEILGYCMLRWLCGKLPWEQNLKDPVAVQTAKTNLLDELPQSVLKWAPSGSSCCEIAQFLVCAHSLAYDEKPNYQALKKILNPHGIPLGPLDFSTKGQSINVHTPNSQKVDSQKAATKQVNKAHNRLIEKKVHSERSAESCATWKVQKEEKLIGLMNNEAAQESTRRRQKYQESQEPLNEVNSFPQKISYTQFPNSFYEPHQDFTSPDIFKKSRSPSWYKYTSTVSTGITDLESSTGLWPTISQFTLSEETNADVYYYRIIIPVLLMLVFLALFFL

With `CNc1nc(Nc2ccc(C(=O)N3CCOCC3)cc2OC)nc2[nH]cc(C#N)c12` [Example 1, 2-((2-methoxy-4-(morpholine-4-carbonyl)phenyl)amino)-4-(methylamino)-7H-pyrrolo[2,3-d]pyrimidine-5-carbonitrile], the remaining binding at 1 µM in assay [1] was 75%; in assay [2], 96%; in assay [3] it was 71%; in assay [4], 84%; in assay [5], 100%.

Turning to `CC1(Nc2nc(Nc3cnn([C@H]4CCN(C5COC5)C[C@@H]4F)c3Cl)nc3[nH]cc(C#N)c23)CC1` [Example 52, 2-((5-chloro-1-((3S,4S)-3-fluoro-1-(oxetane-3-yl)piperidine-4-yl)-1H-pyrazole-4-yl)amino)((1-methylcyclopropyl)amino)-7H-pyrrolo[2,3-d]pyrimidine-5-carbonitrile], the remaining binding at 1 µM in assay [1] worked out at 20%; in assay [2] it was 89%; in assay [3], 100%; in assay [4], 37%; in assay [5] it was 77%.

As for `CCNc1nc(Nc2ccc(C(=O)N3CCC(N4CCOCC4)CC3)cc2OC)nc2[nH]cc(C(F)(F)F)c12` [Example 104, (4-((4-(ethylamino)-5-(trifluoromethyl)-7H-pyrrolo[2,3-d]pyrimidine-2-yl)amino)-3-methoxyphenyl)(4-morpholinopiperidine-1-yl)methanone], the remaining binding at 1 µM in assay [1] turned out to be 100%; in assay [2], 53%; in assay [3], 100%; in assay [4], 100%; in assay [5] it was 97%.
